These results are taken from ChEMBL document CHEMBL1157625, “Design, synthesis and preliminary activity assay of 1,2,3,4-tetrahydroisoquinoline-3-carboxylic acid derivatives as novel Histone deacetylases (HDACs) inhibitors” (Bioorg Med Chem, 2010).

For one test, the target named is T1, Histone deacetylase 8 (Homo sapiens, UniProt Q9BY41).
T1 sequence (Q9BY41 whole entry): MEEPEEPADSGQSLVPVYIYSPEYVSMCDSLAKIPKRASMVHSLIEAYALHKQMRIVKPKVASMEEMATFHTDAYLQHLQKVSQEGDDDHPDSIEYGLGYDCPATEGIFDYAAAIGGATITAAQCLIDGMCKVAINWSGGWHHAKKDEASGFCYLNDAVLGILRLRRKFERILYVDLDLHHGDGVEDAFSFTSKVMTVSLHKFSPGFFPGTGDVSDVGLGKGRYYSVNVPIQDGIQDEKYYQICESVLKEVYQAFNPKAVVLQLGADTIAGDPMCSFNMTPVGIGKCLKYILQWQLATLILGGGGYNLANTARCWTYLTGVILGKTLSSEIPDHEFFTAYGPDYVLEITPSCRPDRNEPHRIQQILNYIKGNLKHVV

The test system of another test is HL-60. Nature of the test: Antiproliferative activity against human HL60 cells after 48 hrs by MTT assay. The class given is functional, cell-based. The conditions noted are these: HL-60, 48 h.
The test system of the next test is HCT-116. Description: Antiproliferative activity against human HCT116 cells after 48 hrs by MTT assay. The class given is functional, cell-based. The conditions noted are these: HCT-116, 48 h.
A further test concerns SK-OV-3. Description: Antiproliferative activity against human SKOV3 cells after 48 hrs by MTT assay. The class given is functional, cell-based. The settings on record: SK-OV-3, 48 h. (In general: Formazan colour is commonly taken as a measure of viable cells.)

Description for Histone deacetylase 8: Inhibition of HDAC8 expressed in Escherichia coli assessed as Boc-Lys (acetyl)-AMC substrate hydrolysis by fluorimetric assay

In general, IC50 refers to the concentration needed to halve the response being measured. In turn, `O=C(COc1ccc2c(c1)CN[C@H](C(=O)Nc1ccccc1)C2)NO` had a concentration for half-maximal inhibition (IC50) at Histone deacetylase 8 of 8.21 µM. This lies in the single-digit micromolar range.
As to `O=C(COc1ccc2c(c1)CN[C@H](C(=O)NCCc1ccccc1)C2)NO`, on Histone deacetylase 8, the half-inhibitory concentration (IC50) was 4.07 µM.
Still for that read-out and setting: then `Cc1ccc(NC(=O)[C@@H]2Cc3ccc(OCC(=O)NO)cc3CN2C(=O)OC(C)(C)C)cc1`, with 1.65 µM; and `O=C(COc1ccc2c(c1)CN[C@H](C(=O)Nc1ccc(-c3ccccc3)cc1)C2)NO`, with 2.21 µM.
For `O=C(COc1ccc2c(c1)CN[C@H](C(=O)Nc1cccc(Cl)c1)C2)NO`, the IC50 on Histone deacetylase 8 is 3.2 µM.
As for `CC(C)(C)NC(=O)[C@@H]1Cc2ccc(OCC(=O)NO)cc2CN1`, on Histone deacetylase 8, inhibition was half-maximal at 12.2 µM (IC50).
On the same count and under the same terms, then `Cc1cccc(NC(=O)[C@@H]2Cc3ccc(OCC(=O)NO)cc3CN2)c1`, with 3.62 µM; and `CC(C)(C)OC(=O)N1Cc2cc(OCC(=O)NO)ccc2C[C@H]1C(=O)Nc1ccccc1`, with 1.29 µM; and `CCCCCNC(=O)[C@@H]1Cc2ccc(OCC(=O)NO)cc2CN1`, with 3.54 µM.
At Histone deacetylase 8, `Cc1ccccc1NC(=O)[C@@H]1Cc2ccc(OCC(=O)NO)cc2CN1` returned an IC50 of 4.13 µM. This IC50 and that of the compound before are within 1.5-fold of each other.
Still for that read-out and setting: then `O=C(COc1ccc2c(c1)CN[C@H](C(=O)Nc1ccc(F)c(Cl)c1)C2)NO`, with 3.34 µM.
Same read-out and setting: then `CC(C)(C)OC(=O)N1Cc2cc(OCC(=O)NO)ccc2C[C@H]1C(=O)Nc1ccc(-c2ccccc2)cc1`, with 1.98 µM.
Still for that read-out and setting: to `Cc1ccc(NC(=O)[C@@H]2Cc3ccc(OCC(=O)NO)cc3CN2)cc1` belongs 3.82 µM.
Turning to `CCCCCNC(=O)[C@@H]1Cc2ccc(OCC(=O)NO)cc2CN1C(=O)OC(C)(C)C`, the IC50 against Histone deacetylase 8 was 3.02 µM.
In turn, `CC(C)(C)OC(=O)N1Cc2cc(OCC(=O)NO)ccc2C[C@H]1C(=O)NCCc1ccccc1` yielded an IC50 against Histone deacetylase 8 of 2.67 µM. This IC50 and that of the compound before are within 1.5-fold of each other.
Same read-out and setting: then `Cc1cccc(NC(=O)[C@@H]2Cc3ccc(OCC(=O)NO)cc3CN2C(=O)OC(C)(C)C)c1`, with 1.77 µM; and `CC(C)(C)OC(=O)N1Cc2cc(OCC(=O)NO)ccc2C[C@H]1C(=O)Nc1ccc(F)cc1`, with 2.56 µM.
Still for that read-out and setting: then `CC(C)(C)OC(=O)N1Cc2cc(OCC(=O)NO)ccc2C[C@H]1C(=O)NCc1ccccc1`, with 3.41 µM.
As for `COc1ccc(NC(=O)[C@@H]2Cc3ccc(OCC(=O)NO)cc3CN2C(=O)OC(C)(C)C)cc1`, the IC50 against Histone deacetylase 8 is 1 µM; with HL-60, over 2120 µM; with HCT-116 it was 48 µM; with SK-OV-3 it was 420 µM.
On the same counts, the results for `O=C(COc1ccc2c(c1)CN[C@H](C(=O)Nc1cccc3ccccc13)C2)NO` are 1.06 µM, 980 µM, 170 µM and 750 µM.
The compound `O=C(COc1ccc2c(c1)CN[C@H](C(=O)NCc1ccccc1)C2)NO` gave an IC50 at Histone deacetylase 8 of 5.1 µM.
For the compound `O=C(COc1ccc2c(c1)CN(C(=O)OCc1ccccc1)[C@H](C(=O)NCCc1ccccc1)C2)NO`, the IC50 at Histone deacetylase 8 is 0.58 µM; with HL-60, over 2000 µM; with HCT-116 it was 370 µM; in the test with SK-OV-3, over 2000 µM.
Take `Cc1ccc(NC(=O)[C@@H]2Cc3ccc(OCC(=O)NO)cc3CN2)c(C)c1`: on Histone deacetylase 8, the midpoint of inhibition, the IC50, lay at 3.39 µM.
Regarding `CCCCCCNC(=O)[C@@H]1Cc2ccc(OCC(=O)NO)cc2CN1C(=O)OC(C)(C)C`, the half-inhibitory concentration (IC50) against Histone deacetylase 8 turned out to be 4.42 µM. The IC50 values of the last two compounds are within 1.5-fold of each other.
In turn, `Cc1ccc(NC(=O)[C@@H]2Cc3ccc(OCC(=O)NO)cc3CN2C(=O)OC(C)(C)C)c(C)c1` had an IC50 against Histone deacetylase 8 of 3.78 µM.
With `O=C(COc1ccc2c(c1)CN1C(=O)N(c3ccc(-c4ccccc4)cc3)C(=O)[C@@H]1C2)NO`, on Histone deacetylase 8, the IC50 is over 50 µM.
As for `CC(C)(C)OC(=O)N1Cc2cc(OCC(=O)NO)ccc2C[C@H]1C(=O)Nc1cccc(Cl)c1`, the 50% inhibitory concentration (IC50) on Histone deacetylase 8 was 1.17 µM; in the test on HL-60 it was 960 µM; with HCT-116 it was 490 µM; in the test on SK-OV-3, 680 µM.
Turning to `CC(C)(C)OC(=O)N1Cc2cc(OCC(=O)NO)ccc2C[C@H]1C(=O)Nc1cccc2ccccc12`, at Histone deacetylase 8, the IC50 came out at 4.25 µM.
Compound `CCCCCCNC(=O)[C@@H]1Cc2ccc(OCC(=O)NO)cc2CN1` registered an IC50 against Histone deacetylase 8 of 5.77 µM. This IC50 and that of the compound before are within 1.5-fold of each other.
Still for that read-out and setting: to `COc1ccc(NC(=O)[C@@H]2Cc3ccc(OCC(=O)NO)cc3CN2)cc1` belongs 5.57 µM.
In turn, `Cc1ccccc1NC(=O)[C@@H]1Cc2ccc(OCC(=O)NO)cc2CN1C(=O)OC(C)(C)C` gave an IC50 on Histone deacetylase 8 of 4 µM.
Still for that read-out and setting: to `O=C(COc1ccc2c(c1)CN1C(=O)N(c3ccccc3)C(=O)[C@@H]1C2)NO` belongs over 50 µM; to `CC(C)(C)OC(=O)N1Cc2cc(OCC(=O)NO)ccc2C[C@H]1C(=O)Nc1ccc(F)c(Cl)c1`, 1.55 µM; to `O=C(COc1ccc2c(c1)CN[C@H](C(=O)Nc1ccc(F)cc1)C2)NO`, 3.23 µM.
The same measure, in the same setting: then `CC(C)(C)NC(=O)[C@@H]1Cc2ccc(OCC(=O)NO)cc2CN1C(=O)OC(C)(C)C`, with 4.58 µM.
